From PMC5413848, “Optimization of intestinal microsomal preparation in the rat: A systematic approach to assess the influence of various methodologies on metabolic activity and scaling factors” (Biopharmaceutics & Drug Disposition, 2017)
Where two headings read alike, the source gives them in different places. Each block holds one compound with its values, some of them ahead of it.

How the values were obtained:
[1] = Nonspecific protein binding in rat intestinal microsomes (96-well micro-equilibrium dialysis)
Description: Nonspecific protein binding was determined in microsomes (1 mg/ml) using high throughput 96‐well micro‐equilibrium dialysis methodology (HTDialysis, LLC, Gales Ferry, CT, USA). These experiments used dialysis membrane strips with 12–14 kDa molecular mass cut‐off (HTDialysis). The microsomes were constituted in 0.1 M phosphate buffer (pH 7.4). The final concentrations of the test compounds was 1 μM. Microsomes containing the test compound were aliquoted into donor wells in triplicate, and buffer placed in the acceptor wells. The plate was incubated at 37°C and left to equilibrate on a plate shaker (450 rpm) for 4 h. Samples from both the acceptor and donor sides of the membrane were then transferred to 96‐well plates and quenched in acetonitrile containing internal standard (AZ1). The same sample preparation and LC–MS/MS methodology was used as described for the microsomal incubations. Compound MS transitions and retention times are reported in Supplemental material Table 3. Fuinc was calculated as the ratio of acceptor to donor both normalized for internal standard as described previously 41. Correction for protein binding for depletion experiments undertaken at 0.5 mg/ml were made using Equation (4).
(4) fumic,2=1/[P]mic,2/Pmic,1×1−fumic,1/fumic,1+1
where mic,1 denotes 1 mg/ml and mic,2 is 0.5 mg/ml.

[2] = in vitro; details: for microsomal CLint at 1 μM: Han-Wistar, rat, in-house combined cofactors
Description: (§1) Microsomes prepared previously via the optimized method (preparation method 8) were combined to form pool 1 (n = 9 rats). A second set of three preparations was combined to form pool 2 (n = 9 rats). Intestinal microsomes were also prepared from intestinal tissue flash‐frozen in tubes on arrival in the laboratory and kept at −80°C until thawing on ice on the morning of preparation, (n = 3 occasions of n = 3 samples). In addition, for comparative purposes microsomes were also prepared from scraped intestinal tissues. Microsomes were prepared after cutting along the length of intestine and gently scraping the intestinal epithelial with a glass microscope slide (n = 1 occasion, n = 3 samples). Commercially available pooled intestinal microsomes were also used as a comparator to those produced in‐house. […] The microsomes were stored at −80°C prior to experiments.
The microsomes prepared from the final optimized preparation method (method 8) were measured for CYP content on the day of preparation prior to storage. These microsomes (n = 3 samples prepared on n = 3 separate occasions) were subsequently thawed on ice and pooled for pool 1. The pool 1 microsomes were then assayed for testosterone and 4‐NP metabolite formation. Additional intestinal microsomes were created using the identical methodology with the same number of rat intestinal samples (n = 3 samples prepared on n = 3 occasions) and assayed for testosterone and 4‐NP metabolite formation as well as for CYP content on the day of preparation before storage. The microsomes from this second set of preparations were then thawed and pooled to form pool 2.
(§2) Midazolam and 7‐hydroxycoumarin were both incubated at 1 mg/ml and 0.5 mg/ml. The microsomes were incubated on ice with alamethacin (50 μg/mg) for 15 min. […] The samples were quenched with ice cold acetonitrile (3:1 quench to sample) containing the internal standard (AZ1). The total incubation time was 40 min. Quenched samples were stored overnight at −20°C. The following day, the samples were diluted with 200 μl UPH2O, and spun at 3000 rpm (Sorvall legend RT centrifuge) for 15 min, and 200 μl of supernatant taken for analysis.

[3] = In vitro-in vivo extrapolation of rat intestinal unbound intrinsic clearance (CL int,u,gut); assay type: in vitro ADME; details: for CL int,u,gut, Combined in-house pools: mean of pool 1 and pool 2 CL int,u and scaling factors; for CL int,u,gut, Pool 1 Mean: pool 1, pool specific scaling factors; for CL int,u,gut, Pool 1 Mean / CL int,u,gut, Pool 2 Mean: threshold 0.01 l/h; for CL int,u,gut, Pool 2 Mean: pool 2, pool specific scaling factors
Source text: The CL int,u values were scaled to give CL int,u,gut using scaling factors for the corresponding microsomal pool (Eq. (5)). The use of scalars from the mean of both pools was also investigated, and was also used for scaling of commercial microsome CL int,u data.
(5) CLint,u,G=CLuint⋅MPPGI⋅Intestine Segment Weight

[4] = Substrate depletion in commercial Han Wistar rat intestinal microsomes, combined or individual CYP and UGT cofactors; details: for microsomal CLint at 1 μM: male, Han Wistar, rat, pH 7.4, CL int,u, Commercial Han Wistar pool
Description: as §1, §2

[5] = microsomes, pH 7.4, CL int,u, Pool 1
[6] = microsomes, pH 7.4, CL int,u, Pool 2
[7] = rat intestinal microsomes 1 mg/ml, compound 1 μM
[8] = commercial Han Wistar microsomes, individual cofactors
[9] = CYP cofactors, 1 mg/ml, 1 μM compound, CYP cofactors only
[10] = Combined cofactors, 1 mg/ml, 1 μM compound, combined CYP and UGT cofactors
[11] = UGT cofactors, 1 mg/ml, 1 μM compound, UGT cofactors only
[12] = rat intestinal microsomes, in-house pool 1, pH 7.4, CL int,u, Pool 1, pool 1, 1 mg/ml, 1 μM compound, CYP and UGT cofactors

SMILES: COc1ccc2c(c1)c(CC(=O)O)c(C)n2C(=O)c1ccc(Cl)cc1 [Indomethacin]
- fuinc ([1]; rat, 4 h, 1 μM, pH 7.4): 0.88
- microsomal CLint at 1 μM [2, 5]: 48.9 µL/min/mg
- microsomal CLint at 1 μM [2, 6]: 62.4 µL/min/mg
- CL int,u,gut, Mean Han Wistar commercial microsomes [3]: 0.22 L/h

SMILES: CCCCC1=NC2(CCCC2)C(=O)N1Cc1ccc(-c2ccccc2-c2nnn[nH]2)cc1 [Irbesartan]
- fuinc ([1]; rat, 4 h, 1 μM, pH 7.4): 0.79
- microsomal CLint at 1 μM [2, 5]: 31.9 µL/min/mg
- microsomal CLint at 1 μM [2, 6]: 35.9 µL/min/mg
- Main route of elimination (CYP vs UGT cofactors) [4, 8]: glucuronidation
- microsomal CLint at 1 μM [4, 9]: 1.5 µL/min/mg
- microsomal CLint at 1 μM [4, 10]: 15.2 µL/min/mg
- microsomal CLint at 1 μM [4, 11]: 9.4 µL/min/mg
- CL int,u,gut, Mean Han Wistar commercial microsomes [3]: 0.03 L/h

SMILES: CC(C)NCC(O)COc1ccc(COCCOC(C)C)cc1 (stereo not drawn) [Bisporolol]
- fuinc [1, 7]: 0.89
- CL int,u, in-house combined cofactors, Pool 1 ([2]; pool 1, 1 mg/ml, 1 μM compound, CYP and UGT cofactors): 5.4 µL/min/mg
- CL int,u, in-house combined cofactors, Pool 2 ([2]; pool 2, 1 mg/ml, 1 μM compound, CYP and UGT cofactors): < 0.1 µL/min/mg
- CL int,u,gut, Combined in-house pools [3]: 0.02 L/h
- CL int,u,gut, Pool 1 Mean [3]: 0.01 L/h
- CL int,u,gut, Pool 2 Mean [3]: 0.03 L/h

SMILES: O=c1ccc2ccc(O)cc2o1 [7‐Hydroxycoumarin]
- Predicted protein binding at 0.5 mg/ml from data measured at 1 mg/ml [1]: 1.00
- Microsomal binding ([1]; rat, 4 h, 1 μM, pH 7.4): 0%
- fuinc ([1]; rat, 4 h, 1 μM, pH 7.4): 1.00
- microsomal CLint at 1 μM [2, 5]: 196 µL/min/mg
- microsomal CLint at 1 μM [2, 6]: 264 µL/min/mg
- Main route of elimination (CYP vs UGT cofactors) [4, 8]: glucuronidation
- microsomal CLint at 1 μM [4, 9]: 0.9 µL/min/mg
- microsomal CLint at 1 μM [4, 10]: 272 µL/min/mg
- microsomal CLint at 1 μM [4, 11]: 327 µL/min/mg
- CL int,u,gut, Mean Han Wistar commercial microsomes [3]: 0.07 L/h

SMILES: O=C1CC2(CCCC2)CC(=O)N1CCCCN1CCN(c2ncccn2)CC1 [Buspirone]
- microsomal CLint at 1 μM ([2]; microsomes, pH 7.4, CL int,u, Pool 1, pool 1, 1 mg/ml, 1 μM compound, CYP and UGT cofactors): 3.2 µL/min/mg
- microsomal CLint at 1 μM ([2]; microsomes, pH 7.4, CL int,u, Pool 2, pool 2, 1 mg/ml, 1 μM compound, CYP and UGT cofactors): 1.4 µL/min/mg

SMILES: O=C(O)Cc1ccccc1Nc1c(Cl)cccc1Cl [Diclofenac]
- fuinc ([1]; rat, 4 h, 1 μM, pH 7.4): 0.98

SMILES: CC(C)Oc1ccc2c(=O)c(-c3ccccc3)coc2c1 [Ipriflavone]
- Predicted protein binding at 0.5 mg/ml from data measured at 1 mg/ml ([1]; rat, 4 h, 1 μM, pH 7.4): 0.43
- fuinc ([1]; rat, 4 h, 1 μM, pH 7.4): 0.28
- microsomal CLint at 1 μM [2, 5]: 495 µL/min/mg
- microsomal CLint at 1 μM [2, 6]: 416 µL/min/mg
- Main route of elimination (CYP vs UGT cofactors) [4]: CYP mediated metabolism
- microsomal CLint at 1 μM ([4]; microsomes, CYP cofactors): 59.1 µL/min/mg
- microsomal CLint at 1 μM ([4]; microsomes, Combined cofactors): 72 µL/min/mg
- microsomal CLint at 1 μM ([4]; microsomes, UGT cofactors): 7.3 µL/min/mg
- CL int,u,gut, Mean Han Wistar commercial microsomes [3]: 0.05 L/h

SMILES: CCCCNc1cc(C(=O)O)cc(S(N)(=O)=O)c1Oc1ccccc1 [Bumetanide]
- fuinc ([1]; rat, 4 h, 1 μM, pH 7.4): 0.92

SMILES: COc1ccc([C@@H]2Sc3ccccc3N(CCN(C)C)C(=O)[C@@H]2OC(C)=O)cc1 [Diltiazem]
- fuinc ([1]; rat, 4 h, 1 μM, pH 7.4): 0.85
- microsomal CLint at 1 μM [2, 5]: 21.8 µL/min/mg
- microsomal CLint at 1 μM [2, 6]: 26.7 µL/min/mg

SMILES: CN(C)CCC=C1c2ccccc2CCc2ccccc21 [Amitriptyline]
- fuinc [1, 7]: 0.20
- microsomal CLint at 1 μM [2, 12]: 24.3 µL/min/mg
- microsomal CLint at 1 μM ([2]; rat intestinal microsomes, in-house pool 2, pH 7.4, CL int,u, Pool 2, pool 2, 1 mg/ml, 1 μM compound, CYP and UGT cofactors): 19.9 µL/min/mg
- Main route of elimination (CYP vs UGT cofactors) [4, 8]: comparable
- Agreement of additive individual cofactor CL int,u with combined cofactor CL int,u ([4]; commercial microsomes, eight compounds): outside 2‐fold range
- microsomal CLint at 1 μM [4, 9]: 5.3 µL/min/mg
- microsomal CLint at 1 μM [4, 10]: 23.8 µL/min/mg
- microsomal CLint at 1 μM [4, 11]: 3 µL/min/mg
- CL int,u,gut, Combined in-house pools [3]: 0.01 L/h
- CL int,u,gut, Pool 1 Mean [3]: 0.01 L/h

The remaining lines, values ahead:

- fuinc ([1]; rat, 4 h, 1 μM, pH 7.4): 0.73
- microsomal CLint at 1 μM [2, 5]: 23.8 µL/min/mg
- microsomal CLint at 1 μM [2, 6]: 18.4 µL/min/mg
SMILES: CCCc1nn(C)c2c(=O)[nH]c(-c3cc(S(=O)(=O)N4CCN(C)CC4)ccc3OCC)nc12 [Sildenafil]

- fuinc [1, 7]: 0.93
- CL int,u,gut, Combined in-house pools [3]: 1.38 L/h
- CL int,u,gut, Pool 1 Mean [3]: 1.08 L/h
- CL int,u,gut, Pool 2 Mean [3]: 1.57 L/h
SMILES: CCC(C)(C)C(=O)O[C@H]1C[C@@H](C)C=C2C=C[C@H](C)[C@H](CC[C@@H]3C[C@@H](O)CC(=O)O3)[C@H]21 [Simvastatin]

- fuinc [1, 7]: 0.90
- microsomal CLint at 1 μM [2, 12]: 7.6 µL/min/mg
- CL int,u,gut, Combined in-house pools [3]: 0.01 L/h
- CL int,u,gut, Pool 1 Mean [3]: 0.01 L/h
- CL int,u,gut, Pool 2 Mean [3]: 0.01 L/h
SMILES: COc1ccc2[nH]c([S+]([O-])Cc3ncc(C)c(OC)c3C)nc2c1 (stereo not drawn) [Omeprazole]

- fuinc ([1]; rat, 4 h, 1 μM, pH 7.4): 0.06
SMILES: O=C(c1ccc(OCCN2CCCCC2)cc1)c1c(-c2ccc(O)cc2)sc2cc(O)ccc12 [Raloxifene]

- Microsomal binding ([1]; rat, 4 h, 1 μM, pH 7.4): 0%
- fuinc ([1]; rat, 4 h, 1 μM, pH 7.4): 1.00
- microsomal CLint at 1 μM [2, 5]: 3.9 µL/min/mg
- microsomal CLint at 1 μM [2, 6]: 2.7 µL/min/mg
- CL int,u,gut, Mean Han Wistar commercial microsomes [3]: 3.21 L/h
SMILES: CN1CCN(CC(=O)N2c3ccccc3C(=O)Nc3cccnc32)CC1 [Pirenzepine]

- fuinc [1, 7]: 0.32
- Predicted protein binding at 0.5 mg/ml from data measured at 1 mg/ml ([1]; rat, 4 h, 1 μM, pH 7.4): 0.48
- microsomal CLint at 1 μM ([2]; rat intestinal microsomes, in-house pool 1, pH 7.4, CL int,u, Pool 1, pool 1, incubated at 0.5 mg/ml (footnote b), 1 μM compound): 465 µL/min/mg
- microsomal CLint at 1 μM ([2]; rat intestinal microsomes, in-house pool 2, pH 7.4, CL int,u, Pool 2, pool 2, incubated at 0.5 mg/ml (footnote b), 1 μM compound): 413 µL/min/mg
- CL int,u,gut, Combined in-house pools [3]: 59.22 L/h
- CL int,u,gut, Pool 1 Mean [3]: 37.77 L/h
- CL int,u,gut, Pool 2 Mean [3]: 77.09 L/h
SMILES: C=CC[C@@H]1/C=C(\C)C[C@H](C)C[C@H](OC)[C@H]2O[C@@](O)(C(=O)C(=O)N3CCCC[C@H]3C(=O)O[C@H](/C(C)=C/[C@@H]3CC[C@@H](O)[C@H](OC)C3)[C@H](C)[C@@H](O)CC1=O)[C@H](C)C[C@@H]2OC [Tacrolimus]

- fuinc ([1]; rat, 4 h, 1 μM, pH 7.4): 0.87
- microsomal CLint at 1 μM [2, 5]: 34.8 µL/min/mg
- microsomal CLint at 1 μM [2, 6]: 14.8 µL/min/mg
- Main route of elimination (CYP vs UGT cofactors) [4, 8]: glucuronidation
- microsomal CLint at 1 μM [4, 9]: 0.1 µL/min/mg
- microsomal CLint at 1 μM [4, 10]: 10 µL/min/mg
- microsomal CLint at 1 μM [4, 11]: 9 µL/min/mg
- CL int,u,gut, Mean Han Wistar commercial microsomes [3]: 0.04 L/h
SMILES: CCCCc1nc(Cl)c(CO)n1Cc1ccc(-c2ccccc2-c2nn[nH]n2)cc1 [Losartan]
